Source: ChEMBL document CHEMBL1148305, “5-substituted derivatives of 6-halogeno-3-((2-(S)-azetidinyl)methoxy)pyridine and 6-halogeno-3-((2-(S)-pyrrolidinyl)methoxy)pyridine with low picomolar affinity for alpha4beta2 nicotinic acetylcholine receptor and wide range of lipophilicity: potential probes for imaging with positron emission …” (J Med Chem, 2004)

Each compound was assayed against Neuronal acetylcholine receptor; alpha4/beta2 (Rattus norvegicus, UniProt P09483+P12390) (assay: Ability of compound to compete with 50 pM of 5-[125I]iodo-A-85,380 for receptor binding sites in rat brain membranes at room temperature).
Format: cell membranes

Going from `Fc1ccnc[n+]1-c1cc(OC[C@@H]2CCN2)cnc1Cl` to `Fc1cc(-c2cc(OC[C@@H]3CCN3)cnc2Cl)ccn1`, the Ki falls from 8.8 pM to 4.8 pM (1.8-fold). The second binds more tightly here.

Compared with `Fc1cc(/C=C/c2cc(OC[C@@H]3CCCN3)cnc2Cl)ccn1`, `Fc1cc(/C=C/c2cc(OC[C@@H]3CCN3)cnc2Cl)ccn1` is 3-fold lower in Ki: 9.4 pM for the first, 3.1 pM for the second. The second binds more tightly here.

`Clc1ncc(OC[C@@H]2CCN2)cc1-c1cccnc1` and `Brc1ncc(OC[C@@H]2CCN2)cc1-c1cccnc1` are within 1.5-fold of each other in Ki: 8.1 pM for the first, 6.6 pM for the second.

`Clc1ncc(OC[C@@H]2CCN2)cc1/C=C/c1ccnc(Br)c1` and `Clc1ncc(OC[C@@H]2CCCN2)cc1/C=C/c1ccnc(Br)c1` are within 1.5-fold of each other in Ki: 5.2 pM for the first, 5.6 pM for the second.

`Clc1ccc(-c2cc(OC[C@@H]3CCN3)cnc2Cl)cn1` and `Fc1ccc(-c2cc(OC[C@@H]3CCN3)cnc2Cl)cn1` are within 1.5-fold of each other in Ki: 4.5 pM for the first, 4.9 pM for the second.

Compared with `Clc1ccc(OC[C@@H]2CCN2)cn1`, `Clc1ncc(OC[C@@H]2CCN2)cc1-c1ccc(Br)nc1` is 7.9-fold lower in Ki: 34 pM for the first, 4.3 pM for the second. The second binds more tightly here.

`Clc1ncc(OC[C@@H]2CCN2)cc1-c1ccnc(Br)c1` and `Fc1ncc(-c2cc(OC[C@@H]3CCN3)cnc2Cl)cc1Br` are within 1.5-fold of each other in Ki: 3.3 pM for the first, 4 pM for the second.

Going from `Fc1ncc(OC[C@@H]2CCN2)cc1-c1cccnc1` to `Ic1ncc(OC[C@@H]2CCN2)cc1-c1cccnc1`, the Ki falls from 66 pM to 11.7 pM (5.6-fold). The second binds more tightly here.

`Clc1ncc(OC[C@@H]2CCN2)cc1/C=C/c1ccncc1` and `Fc1ncc(/C=C/c2cc(OC[C@@H]3CCN3)cnc2Cl)cc1Br` are within 1.5-fold of each other in Ki: 9 pM for the first, 7.7 pM for the second.

`Fc1ccc(-c2cc(OC[C@@H]3CCCN3)cnc2Cl)cn1` and `Clc1ncc(OC[C@@H]2CCCN2)cc1-c1ccc(Br)nc1` are within 1.5-fold of each other in Ki: 17.9 pM for the first, 19.5 pM for the second.
